The target of one test is Bovine chymotrypsin (Bos taurus, UniProt P00766). Nature of the test: Inhibition of chymotrypsin, AAPF-pNA substrate. The class given is biochemical. The note with it: Chymotrypsin (5 nM), AAPF-pNA 0.08 mM.
The next test concerns the target T1, Factor XIIa (Homo sapiens, UniProt P00748).
T1 sequence (P00748 373-615 limits assumed): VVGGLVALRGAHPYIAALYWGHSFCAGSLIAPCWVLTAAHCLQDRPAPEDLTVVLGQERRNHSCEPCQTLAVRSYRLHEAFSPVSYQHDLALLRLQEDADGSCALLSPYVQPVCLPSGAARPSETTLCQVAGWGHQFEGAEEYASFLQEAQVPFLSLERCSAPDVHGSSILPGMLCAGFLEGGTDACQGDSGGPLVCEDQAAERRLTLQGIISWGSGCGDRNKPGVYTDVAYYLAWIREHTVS
As to the kind of experiment: Inhibition of Factor XIIa, PFR-AMC substrate. The class given is biochemical.

As for `CC[C@H](C)[C@H](N)C(=O)N[C@@H](Cc1c[nH]cn1)C(=O)N[C@@H](CC(=O)O)C(=O)N[C@@H](Cc1ccccc1)C(=O)N[C@H]1CSSC[C@@H](C(=O)N[C@@H](C)C(=O)N[C@H](C(=O)N[C@H](C(=O)O)C(C)C)[C@@H](C)O)NC(=O)[C@H](CCCCN)NC(=O)[C@H](CCCCN)NC(=O)[C@H](CC(C)C)NC(=O)[C@@H]2CSSC[C@@H]3NC(=O)[C@H](CO)NC(=O)CNC(=O)[C@H](CC(=O)O)NC(=O)[C@H]([C@@H](C)O)NC(=O)[C@H](C(C)C)NC(=O)[C@H](CC(N)=O)NC(=O)[C@H](Cc4ccc(O)cc4)NC(=O)[C@H](Cc4c[nH]c5ccccc45)NC(=O)[C@H](Cc4c[nH]c5ccccc45)NC(=O)[C@H](CCCNC(=N)N)NC(=O)[C@@H]4CCCN4C(=O)[C@H](CCSC)NC(=O)[C@H](CO)NC(=O)[C@H](C)NC(=O)[C@H](CCCNC(=N)N)NC(=O)[C@H](CSSC[C@H](NC(=O)CNC(=O)CNC(=O)[C@H](Cc4ccc(O)cc4)NC(=O)[C@H](C(C)C)NC(=O)[C@H](Cc4ccccc4)NC(=O)[C@H](CC(C)C)NC(=O)[C@H](CCC(N)=O)NC3=O)C(=O)N[C@@H](CC(=O)O)C(=O)NCC(=O)N[C@@H](CC(N)=O)C(=O)N[C@@H](CO)C(=O)N[C@@H](CC(N)=O)C(=O)N[C@@H](CC(N)=O)C(=O)N[C@@H](Cc3ccc(O)cc3)C(=O)N[C@@H](CC(C)C)C(=O)N[C@@H]([C@@H](C)O)C(=O)N[C@@H](CCCCN)C(=O)N[C@@H](CCC(=O)O)C(=O)N[C@@H](CCC(=O)O)C(=O)N2)NC(=O)[C@H](CCCNC(=N)N)NC(=O)CNC(=O)[C@H](C(C)C)NC(=O)[C@H](C(C)C)NC(=O)[C@H](CCCCN)NC(=O)[C@H](CO)NC(=O)[C@H](C(C)C)NC(=O)[C@H](CC(C)C)NC1=O` [bikunin (7–64)], the Ki on Bovine chymotrypsin was 600 pM; at Factor XIIa it was greater than 300000 pM.

(Values after patent US7019123B2, “Human bikunin” (Bayer Corporation, priority 1996, dated 2006).)
